Source: US10905679B2, “TRPM8 receptor agonist compounds and uses thereof” (UNIVERSIDAD MIGUEL HERNANDEZ DE ELCHE, priority 2016, dated 2021)

Tests used:
[1] = system: TRPM8, TRPV1 and TRPA1 channels; assay: Specificity by Ca2+ fluorescence microscopy in mouse dorsal root ganglion (DRG) neurons; format: cell-based; conditions: Fluo-4 AM fluorescence, FIG. 1
Procedure: Neurons obtained from a mouse dorsal root ganglion (DRG) were used to determine the specificity of the TZM-7 compound. These cells constitutively express the TRPM8, TRPV1 and TRPA1 channels, among others (the TRPV1 and TRPA1 channels are channels of the same family as the TRPM8 channel and are permeable to calcium). The intracellular Ca^2+ concentration was measured using fluorescence microscopy in order to view the activity of these channels. The cells were seeded with a density of 250,000 cells/well on round glass cover slips (18 mm diameter, […]) in 12-well plates (Costar) and cultured in Pure-EMEM during 3 days immediately before the Ca^2+ experiments. […] The cells that were not sensitive to the application of high potassium concentration were not analysed. […] The fluorescence measurements were taken using an Axiovert 200 inverted microscope from Zeiss (Oberkochen, Germany) coupled with an ORCA-ER CCD camera (Hamamatsu Photonics, Bridgewater, N.J.) and observed through a 10× magnification air lens. The Fluo-4 AM fluorescent probe was excited at 500 nm using a Lambda-10-2 filter wheel (Sutter Instruments, Novato, Calif.) and the emission fluorescence was filtered with a 535 nm longpass filter. […]

TRPM8 = molecular target: T1, TRPM8 (Homo sapiens, UniProt Q7Z2W7); assay: Ca2+ fluorimetry assay in CHO cell line stably expressing TRPM8; format: cell-based; conditions: CHO cells stably expressing TRPM8
T1 construct: expressed in transfected cells
Procedure: The cells were cultured in monolayer in EMEM medium (Earle's minimum essential medium with Earle's salts, Invitrogen) supplemented with 10% foetal bovine serum (FBS), 2 mM L-glutamine, 1% penicillin-streptomycin solution and […] of the Geneticin antibiotic (Sigma) and kept at 37° C. in a humidified atmosphere with 5% of CO2. Ca^2+ fluorimetry assays were carried out in order to determine the efficacy of the compounds on the TRPM8 channels. The cells were seeded in 96-well plates with a density of 25,000 cells per well. Three days after seeding, the medium was removed and 100 μl of the Fluo-4NW fluorescent probe from Invitrogen was added with a concentration of 5 μM in the presence of 0.02% pluronic acid; after 60 minutes of incubation at 37° C. in a humidified atmosphere with 5% of CO2, the fluorescence was measured in a microplate reader (POLARstar Omega) with a configuration of 485 nm for the excitation and 520 nm for the emission, during 20 cycles. […] In the wells that were used as negative controls, 1 μl of AMTB [N-(3-aminopropyl)-2-[(3-methylphenyl)methoxy]-N-(2-thienylmethyl)benzamide] was added to obtain a final concentration of 10 μM, to block the TRPM8 channels.
The amplitudes of the Ca^2+ increases, caused by the stimulation of the cells with the compounds, were measured by subtracting the basal fluorescence signal (mean intensity obtained before adding the compound) from the fluorescence peak obtained after applying the compounds. The obtained results were adjusted to a sigmoid function using the software suite of the GraphPad Prism computer program.

guinea pig = assay: In vivo tear secretion measured using phenol red threads after ocular instillation; conditions: 10 μM, phenol red thread 30 seconds, p<0.05, comparable to menthol at 200 μM, FIG. 2
Description: The in vivo activity of the selected TRPM8 activating compounds (TZM-7) has been assessed in an animal model following the protocol described in Acosta M C et al., Invest Ophthalmol Vis Sci 2014 (Corneal sensory nerve activity in an experimental model of UV keratitis. Acosta M et al., Invest Ophthalmol Vis Sci May 1; 55(6):3403-12). […] Tear secretion can be measured using phenol red threads (Zone-Quick, Menicon, Nagoya, Japan) that are applied to the nasal edge of the lower eyelid for 30 seconds (after that time, the distance of the red-dyed thread is measured in mm).

T1 sequence (Q7Z2W7 whole entry): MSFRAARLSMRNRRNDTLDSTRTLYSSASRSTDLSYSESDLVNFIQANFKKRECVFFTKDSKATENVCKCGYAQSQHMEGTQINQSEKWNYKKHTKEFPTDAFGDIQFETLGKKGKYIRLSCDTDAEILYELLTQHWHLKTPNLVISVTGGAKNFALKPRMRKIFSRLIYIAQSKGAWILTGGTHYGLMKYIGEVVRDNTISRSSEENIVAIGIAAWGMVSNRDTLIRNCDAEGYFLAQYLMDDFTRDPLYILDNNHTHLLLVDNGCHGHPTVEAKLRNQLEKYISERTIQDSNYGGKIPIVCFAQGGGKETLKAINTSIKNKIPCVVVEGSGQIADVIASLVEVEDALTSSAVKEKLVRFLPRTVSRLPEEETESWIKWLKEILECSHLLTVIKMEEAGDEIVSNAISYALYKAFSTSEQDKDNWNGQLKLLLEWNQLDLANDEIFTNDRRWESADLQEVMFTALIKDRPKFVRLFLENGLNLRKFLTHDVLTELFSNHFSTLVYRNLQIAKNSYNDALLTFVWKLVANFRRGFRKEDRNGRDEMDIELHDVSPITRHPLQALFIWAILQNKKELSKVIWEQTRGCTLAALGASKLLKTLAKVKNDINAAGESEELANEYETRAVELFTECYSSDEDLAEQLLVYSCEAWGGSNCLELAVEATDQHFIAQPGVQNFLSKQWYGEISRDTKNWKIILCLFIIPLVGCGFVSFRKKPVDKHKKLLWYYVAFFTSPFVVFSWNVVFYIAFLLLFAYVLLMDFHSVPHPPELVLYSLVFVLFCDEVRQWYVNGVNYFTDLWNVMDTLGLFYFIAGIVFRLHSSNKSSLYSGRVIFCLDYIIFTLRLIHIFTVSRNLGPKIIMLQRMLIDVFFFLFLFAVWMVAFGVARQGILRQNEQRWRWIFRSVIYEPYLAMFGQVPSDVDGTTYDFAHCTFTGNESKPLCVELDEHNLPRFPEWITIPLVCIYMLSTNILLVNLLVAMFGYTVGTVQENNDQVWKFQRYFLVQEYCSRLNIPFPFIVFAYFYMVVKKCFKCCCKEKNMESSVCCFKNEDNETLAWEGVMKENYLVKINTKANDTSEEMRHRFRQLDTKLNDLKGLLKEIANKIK

Question: With COc1cc(OC)cc(-c2cn([C@@H]3C[C@H](C)CC[C@H]3C(C)C)nn2)c1 [TZM-7, 4-(3,5-dimethoxyphenyl)-1-((1R,2S,5R)-2-isopropyl-5-methylcyclohexyl)-1H-1,2,3-triazole] as the compound, how does the “specificity to activate TRPM8 channels compared with other channels (TRPV1 and TRPA1)” value [1] read?
Answer: high specificity

Question: And the activation at 10 µM (TRPM8; 10 μM, Fluo-4NW fluorescence)?
Answer: 78.5 ± 30.6%

Question: And the EC50 (TRPM8; concentrations 0.1, 1, 10 and 100 μM, sigmoid fit)?
Answer: 2.91 ± 0.21 µM

Question: And the “rate of lachrymation (tear secretion)” value (guinea pig)?
Answer: significantly increases the rate of lachrymation
